Experimental data taken from ChEMBL document CHEMBL1208736, “Synthesis of highly functionalized 2,4-diaminoquinazolines as anticancer and anti-HIV agents” (Bioorg Med Chem Lett, 2010).
Values after ≈ are worked out from the molar mass of the structure shown.

Columns and labels:
HepG2 = assay: Cytotoxicity against human HepG2 cells by MTT assay; assay type: functional, cell-based
HL-60 = assay: Cytotoxicity against human HL60 cells by MTT assay; assay type: functional, cell-based
SK-OV-3 = assay: Cytotoxicity against human SKOV3 cells by MTT assay; assay type: functional, cell-based
[1] = Cytotoxicity against human C8166 cells after 3 days by MTT assay; assay type: cell-based
A-431 = assay: Cytotoxicity against human A431 cells by MTT assay; assay type: functional, cell-based
[2] = Therapeutic index, ratio of CC50 for human C8166 cells to EC50 for HIV1 3B; assay type: cell-based; conditions: read-out: Ratio CC50/EC50
[3] = system: Human immunodeficiency virus 1; assay: Antiviral activity against HIV1 3B infected in human C8166 cells assessed as inhibition of viral replication; assay type: functional, organism-based; conditions: Human immunodeficiency virus 1, 3B
A549 = assay: Cytotoxicity against human A549 cells by MTT assay; assay type: functional, cell-based

Compound	IC50 (HepG2) [µg/mL]	IC50 (HL-60) [µg/mL]	IC50 (SK-OV-3) [µg/mL]	CC50 at 72 h [1] [µg/mL]	IC50 (A-431) [µg/mL]	selectivity ratio [2]	EC50 [3] [µg/mL]	IC50 (A549) [µg/mL]
N#Cc1c(Cl)c(Cl)c2nc(N)nc(N)c2c1Cl	2.5 (≈ 8.66 µM)	19 (≈ 65.9 µM)	1.3 (≈ 4.51 µM)	14.3 (≈ 49.6 µM)	3.3 (≈ 11.4 µM)	8	1 (≈ 3.47 µM)	29.7 (≈ 103 µM)
N#Cc1c(F)c(Cl)c2nc(N)nc(N)c2c1F	4.8 (≈ 18.8 µM)	0.04 (≈ 0.156 µM)	0.14 (≈ 0.548 µM)	3.9 (≈ 15.3 µM)	1.5 (≈ 5.87 µM)	7	0.1 (≈ 0.391 µM)	30.8 (≈ 120 µM)
N#Cc1c(F)c(F)c2nc(N)nc(N)c2c1F	5 (≈ 20.9 µM)	51 (≈ 213 µM)	8 (≈ 33.5 µM)	36.4 (≈ 152 µM)	105 (≈ 439 µM)	59.6	0.6 (≈ 2.51 µM)	> 1000
N#Cc1c(N)c(Cl)c2nc(N)nc(N)c2c1Cl	3.7 (≈ 13.7 µM)	6.7 (≈ 24.9 µM)	0.8 (≈ 2.97 µM)		9.5 (≈ 35.3 µM)			188 (≈ 699 µM)
N#Cc1c(Nc2ccccc2)c(Cl)c2nc(N)nc(N)c2c1F	5.9 (≈ 17.9 µM)	47 (≈ 143 µM)	3.7 (≈ 11.3 µM)	6.3 (≈ 19.2 µM)	4.8 (≈ 14.6 µM)	13.5	0.4 (≈ 1.22 µM)	> 1000
N#Cc1c(Nc2ccccc2)c(F)c2nc(N)nc(N)c2c1F	1.4 (≈ 4.48 µM)	40 (≈ 128 µM)	6.5 (≈ 20.8 µM)	6.9 (≈ 22.1 µM)	7 (≈ 22.4 µM)	16.3	0.2 (≈ 0.64 µM)	> 1000
COc1ccc(Nc2c(C#N)c(F)c3c(N)nc(N)nc3c2Cl)cc1	10.2 (≈ 28.4 µM)	2.2 (≈ 6.13 µM)	1.6 (≈ 4.46 µM)		5.1 (≈ 14.2 µM)			103 (≈ 287 µM)
N#Cc1c(Nc2ccc(Cl)cc2)c(F)c2nc(N)nc(N)c2c1F	1 (≈ 2.88 µM)	35 (≈ 101 µM)	4.8 (≈ 13.8 µM)		4.5 (≈ 13 µM)			115 (≈ 332 µM)
N#Cc1c(NCc2ccccc2)c(Cl)c2nc(N)nc(N)c2c1F	1.4 (≈ 4.08 µM)	0.3 (≈ 0.875 µM)	0.8 (≈ 2.33 µM)		1.4 (≈ 4.08 µM)			34.1 (≈ 99.5 µM)
N#Cc1c(NCc2ccccc2)c(F)c2nc(N)nc(N)c2c1F	27.8 (≈ 85.2 µM)	14 (≈ 42.9 µM)	11 (≈ 33.7 µM)		12.9 (≈ 39.5 µM)			> 1000
CC(C)(C)Nc1c(C#N)c(F)c2c(N)nc(N)nc2c1Cl	5.4 (≈ 17.5 µM)	5.2 (≈ 16.8 µM)	2.1 (≈ 6.8 µM)		6.5 (≈ 21.1 µM)			313 (≈ 1010 µM)
CC(C)(C)Nc1c(C#N)c(F)c2c(N)nc(N)nc2c1F	16.2 (≈ 55.4 µM)	18 (≈ 61.6 µM)	2.4 (≈ 8.21 µM)		11.9 (≈ 40.7 µM)			> 1000
CCN(CC)c1c(C#N)c(F)c2c(N)nc(N)nc2c1Cl	2 (≈ 6.48 µM)	2.3 (≈ 7.45 µM)	0.4 (≈ 1.3 µM)		7.3 (≈ 23.6 µM)			7.1 (≈ 23 µM)
CCN(CC)c1c(C#N)c(F)c2c(N)nc(N)nc2c1F	1.3 (≈ 4.45 µM)	6.4 (≈ 21.9 µM)	1 (≈ 3.42 µM)		16.4 (≈ 56.1 µM)			26.5 (≈ 90.7 µM)
CCCCNc1c(C#N)c(NCCCC)c2c(N)nc(N)nc2c1Cl	1.3 (≈ 3.59 µM)	0.7 (≈ 1.93 µM)	0.6 (≈ 1.66 µM)		2.5 (≈ 6.91 µM)			2 (≈ 5.53 µM)
CCCCNc1c(C#N)c(NCCCC)c2c(N)nc(N)nc2c1F	2.6 (≈ 7.53 µM)	1.4 (≈ 4.05 µM)	1.6 (≈ 4.63 µM)		1 (≈ 2.89 µM)			> 1000
N#Cc1c(NCc2ccccc2)c(Cl)c2nc(N)nc(N)c2c1NCc1ccccc1	19.2 (≈ 44.7 µM)	8.5 (≈ 19.8 µM)	3.7 (≈ 8.61 µM)		716 (≈ 1670 µM)			> 1000
N#Cc1c(NCc2ccccc2)c(F)c2nc(N)nc(N)c2c1NCc1ccccc1	13.4 (≈ 32.4 µM)	7.2 (≈ 17.4 µM)	2.5 (≈ 6.05 µM)		20.7 (≈ 50.1 µM)			13.9 (≈ 33.6 µM)
N#Cc1c(Oc2ccccc2)c(Cl)c2nc(N)nc(N)c2c1Oc1ccccc1	> 1000	88 (≈ 218 µM)	14 (≈ 34.7 µM)		> 1000			> 1000
N#Cc1c(OCc2ccccc2)c(F)c2nc(N)nc(N)c2c1OCc1ccccc1	84 (≈ 202 µM)	62 (≈ 149 µM)	14 (≈ 33.7 µM)		68.3 (≈ 164 µM)			> 1000
N#Cc1c(Sc2ccccc2)c(Cl)c2nc(N)nc(N)c2c1Sc1ccccc1	5 (≈ 11.5 µM)	26 (≈ 59.6 µM)	9.4 (≈ 21.6 µM)	46.8 (≈ 107 µM)	32.4 (≈ 74.3 µM)	10.6	3.2 (≈ 7.34 µM)	> 1000
CCCSc1c(C#N)c(SCCC)c2c(N)nc(N)nc2c1Cl	> 1000	7.7 (≈ 20.9 µM)	1.2 (≈ 3.26 µM)	> 200	535 (≈ 1450 µM)	11.5	13.3 (≈ 36.1 µM)	> 1000
Cc1cn([C@H]2C[C@H](N=[N+]=[N-])[C@@H](CO)O2)c(=O)[nH]c1=O [ZIDOVUDINE]						286000	0.004 (≈ 0.015 µM)	
